Values joined by “and” are separate entries in the source; they are usually repeats but may differ in a detail not shown here. Equal entries are not always repeated.
Settings: Liquid; for speed of sound: Frequency=3 MHz, Single path-length method; for mass density: Vibrating tube method

COC(F)(C(F)(F)C(F)(F)F)C(F)(C(F)(F)F)C(F)(F)F (configuration not stated)
Settings	mass density	speed of sound [m/s]
293.15 K, 100 kPa	1668.2 kg/m3 and 1668.43 kg/m3	644.5
293.15 K, 1000 kPa	1670.8 kg/m3	–
293.15 K, 5000 kPa	1681.9 kg/m3	–
293.15 K, 10000 kPa	1694.8 kg/m3	–
293.15 K, 15000 kPa	1706.6 kg/m3	–
293.15 K, 20000 kPa	1717.6 kg/m3	–
293.15 K, 25000 kPa	1727.9 kg/m3	–
293.15 K, 30000 kPa	1737.7 kg/m3	–
293.15 K, 35000 kPa	1746.9 kg/m3	–
293.15 K, 40000 kPa	1755.6 kg/m3	–
293.15 K, 45000 kPa	1764 kg/m3	–
293.15 K, 50000 kPa	1772 kg/m3	–
293.15 K, 55000 kPa	1779.7 kg/m3	–
293.15 K, 60000 kPa	1787 kg/m3	–
293.15 K, 65000 kPa	1794.1 kg/m3	–
293.15 K, 70000 kPa	1800.9 kg/m3	–
293.15 K, 80000 kPa	1814 kg/m3	–
293.15 K, 90000 kPa	1826.3 kg/m3	–
293.15 K, 100000 kPa	1837.8 kg/m3	–
293.15 K, 110000 kPa	1848.8 kg/m3	–
293.15 K, 120000 kPa	1859.3 kg/m3	–
293.15 K, 130000 kPa	1869.3 kg/m3	–
293.15 K, 140000 kPa	1878.8 kg/m3	–
298.15 K, 100 kPa	1656.7 kg/m3 and 1656.79 kg/m3	629.44
298.15 K, 1000 kPa	1659.4 kg/m3	–
298.15 K, 5000 kPa	1671 kg/m3	–
298.15 K, 10000 kPa	1684.4 kg/m3	–
298.15 K, 15000 kPa	1696.6 kg/m3	–
298.15 K, 20000 kPa	1708 kg/m3	–
298.15 K, 25000 kPa	1718.6 kg/m3	–
298.15 K, 30000 kPa	1728.6 kg/m3	–
298.15 K, 35000 kPa	1738.1 kg/m3	–
298.15 K, 40000 kPa	1747.1 kg/m3	–
298.15 K, 45000 kPa	1755.6 kg/m3	–
298.15 K, 50000 kPa	1763.8 kg/m3	–
298.15 K, 55000 kPa	1771.7 kg/m3	–
298.15 K, 60000 kPa	1779.3 kg/m3	–
298.15 K, 65000 kPa	1786.5 kg/m3	–
298.15 K, 70000 kPa	1793.4 kg/m3	–
298.15 K, 80000 kPa	1806.7 kg/m3	–
298.15 K, 90000 kPa	1819.1 kg/m3	–
298.15 K, 100000 kPa	1831 kg/m3	–
298.15 K, 110000 kPa	1842 kg/m3	–
298.15 K, 120000 kPa	1852.7 kg/m3	–
298.15 K, 130000 kPa	1862.8 kg/m3	–
298.15 K, 140000 kPa	1872.5 kg/m3	–
303.15 K, 100 kPa	1645.11 kg/m3	614.76
313.15 K, 100 kPa	1621.3 kg/m3 and 1621.41 kg/m3	585.65
313.15 K, 1000 kPa	1624.5 kg/m3	–
313.15 K, 5000 kPa	1637.7 kg/m3	–
313.15 K, 10000 kPa	1652.7 kg/m3	–
313.15 K, 15000 kPa	1666.3 kg/m3	–
313.15 K, 20000 kPa	1678.8 kg/m3	–
313.15 K, 25000 kPa	1690.4 kg/m3	–
313.15 K, 30000 kPa	1701.4 kg/m3	–
313.15 K, 35000 kPa	1711.6 kg/m3	–
313.15 K, 40000 kPa	1721.2 kg/m3	–
313.15 K, 45000 kPa	1730.5 kg/m3	–
313.15 K, 50000 kPa	1739.2 kg/m3	–
313.15 K, 55000 kPa	1747.6 kg/m3	–
313.15 K, 60000 kPa	1755.5 kg/m3	–
313.15 K, 65000 kPa	1763.3 kg/m3	–
313.15 K, 70000 kPa	1770.7 kg/m3	–
313.15 K, 80000 kPa	1784.8 kg/m3	–
313.15 K, 90000 kPa	1797.9 kg/m3	–
313.15 K, 100000 kPa	1810.2 kg/m3	–
313.15 K, 110000 kPa	1822 kg/m3	–
313.15 K, 120000 kPa	1832.9 kg/m3	–
313.15 K, 130000 kPa	1843.5 kg/m3	–
313.15 K, 140000 kPa	1853.5 kg/m3	–
323.15 K, 100 kPa	1597.04 kg/m3	557.04
333.15 K, 100 kPa	1572.7 kg/m3 and 1572.8 kg/m3	529.01
333.15 K, 1000 kPa	1576.5 kg/m3	–
333.15 K, 5000 kPa	1592.3 kg/m3	–
333.15 K, 10000 kPa	1609.9 kg/m3	–
333.15 K, 15000 kPa	1625.7 kg/m3	–
333.15 K, 20000 kPa	1639.8 kg/m3	–
333.15 K, 25000 kPa	1653 kg/m3	–
333.15 K, 30000 kPa	1665.2 kg/m3	–
333.15 K, 35000 kPa	1676.5 kg/m3	–
333.15 K, 40000 kPa	1687.3 kg/m3	–
333.15 K, 45000 kPa	1697.5 kg/m3	–
333.15 K, 50000 kPa	1707 kg/m3	–
333.15 K, 55000 kPa	1716.1 kg/m3	–
333.15 K, 60000 kPa	1724.7 kg/m3	–
333.15 K, 65000 kPa	1733.1 kg/m3	–
333.15 K, 70000 kPa	1741 kg/m3	–
333.15 K, 80000 kPa	1756.1 kg/m3	–
333.15 K, 90000 kPa	1770.2 kg/m3	–
333.15 K, 100000 kPa	1783.3 kg/m3	–
333.15 K, 110000 kPa	1795.6 kg/m3	–
333.15 K, 120000 kPa	1807.3 kg/m3	–
333.15 K, 130000 kPa	1818.5 kg/m3	–
333.15 K, 140000 kPa	1829.1 kg/m3	–
353.15 K, 100 kPa	1521.7 kg/m3	–
353.15 K, 1000 kPa	1526.5 kg/m3	–
353.15 K, 5000 kPa	1545.6 kg/m3	–
353.15 K, 10000 kPa	1566.5 kg/m3	–
353.15 K, 15000 kPa	1584.7 kg/m3	–
353.15 K, 20000 kPa	1601 kg/m3	–
353.15 K, 25000 kPa	1615.8 kg/m3	–
353.15 K, 30000 kPa	1629.5 kg/m3	–
353.15 K, 35000 kPa	1642.1 kg/m3	–
353.15 K, 40000 kPa	1653.7 kg/m3	–
353.15 K, 45000 kPa	1664.8 kg/m3	–
353.15 K, 50000 kPa	1675.2 kg/m3	–
353.15 K, 55000 kPa	1685.1 kg/m3	–
353.15 K, 60000 kPa	1694.5 kg/m3	–
353.15 K, 65000 kPa	1703.5 kg/m3	–
353.15 K, 70000 kPa	1712.1 kg/m3	–
353.15 K, 80000 kPa	1728.1 kg/m3	–
353.15 K, 90000 kPa	1743.1 kg/m3	–
353.15 K, 100000 kPa	1757 kg/m3	–
353.15 K, 110000 kPa	1770.1 kg/m3	–
353.15 K, 120000 kPa	1782.5 kg/m3	–
353.15 K, 130000 kPa	1794.1 kg/m3	–
353.15 K, 140000 kPa	1805.2 kg/m3	–
373.15 K, 1000 kPa	1473.5 kg/m3	–
373.15 K, 5000 kPa	1497.1 kg/m3	–
373.15 K, 10000 kPa	1521.9 kg/m3	–
373.15 K, 15000 kPa	1543.1 kg/m3	–
373.15 K, 20000 kPa	1561.5 kg/m3	–
373.15 K, 25000 kPa	1578.3 kg/m3	–
373.15 K, 30000 kPa	1593.7 kg/m3	–
373.15 K, 35000 kPa	1607.7 kg/m3	–
373.15 K, 40000 kPa	1620.4 kg/m3	–
373.15 K, 45000 kPa	1632.5 kg/m3	–
373.15 K, 50000 kPa	1643.9 kg/m3	–
373.15 K, 55000 kPa	1654.6 kg/m3	–
373.15 K, 60000 kPa	1664.7 kg/m3	–
373.15 K, 65000 kPa	1674.3 kg/m3	–
373.15 K, 70000 kPa	1683.4 kg/m3	–
373.15 K, 80000 kPa	1700.6 kg/m3	–
373.15 K, 90000 kPa	1716.5 kg/m3	–
373.15 K, 100000 kPa	1731.3 kg/m3	–
373.15 K, 110000 kPa	1745.1 kg/m3	–
373.15 K, 120000 kPa	1758.1 kg/m3	–
373.15 K, 130000 kPa	1770.3 kg/m3	–
373.15 K, 140000 kPa	1782 kg/m3	–
393.15 K, 1000 kPa	1417.2 kg/m3	–
393.15 K, 5000 kPa	1446.9 kg/m3	–
393.15 K, 10000 kPa	1476.7 kg/m3	–
393.15 K, 15000 kPa	1501.4 kg/m3	–
393.15 K, 20000 kPa	1522.8 kg/m3	–
393.15 K, 25000 kPa	1541.5 kg/m3	–
393.15 K, 30000 kPa	1558.4 kg/m3	–
393.15 K, 35000 kPa	1573.8 kg/m3	–
393.15 K, 40000 kPa	1588 kg/m3	–
393.15 K, 45000 kPa	1601 kg/m3	–
393.15 K, 50000 kPa	1613.3 kg/m3	–
393.15 K, 55000 kPa	1624.9 kg/m3	–
393.15 K, 60000 kPa	1635.8 kg/m3	–
393.15 K, 65000 kPa	1646 kg/m3	–
393.15 K, 70000 kPa	1655.8 kg/m3	–
393.15 K, 80000 kPa	1674.1 kg/m3	–
393.15 K, 90000 kPa	1690.9 kg/m3	–
393.15 K, 100000 kPa	1706.5 kg/m3	–
393.15 K, 110000 kPa	1721 kg/m3	–
393.15 K, 120000 kPa	1734.7 kg/m3	–
393.15 K, 130000 kPa	1747.5 kg/m3	–
393.15 K, 140000 kPa	1759.7 kg/m3	–

— the NIST ThermoML archive (doi:10.1016/j.jct.2018.02.003)
